From patent publication US20260042764A1, “COMPOSITIONS AND METHODS FOR INHIBITION OF KRAS” (TheRas, Inc., priority 2022, published 2026)
pIC50: −log10 of the molar value.

Key:
[1] = test system: GP2d cells (KRAS G12D); test: Cell-based pERK HTRF assay in GP2d cell (Biological Example 2); settings: GP2d
Outline: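 Cells grown in DMEM with 10% FBS were exposed to compound for 60 min at 0.25% DMSO, using a 9-point half-log series starting at 1 μM or 100 nM. Lysates were then mixed with d2 and Eu cryptate antibodies for 4–24 h at room temperature, and pERK was read by HTRF.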

[2] = target: T1, Avi-KRAS G12D (2-169) GTP/RAF1 RBD-3xFLAG (51-131) (Homo sapiens, UniProt P01116, G12D); test: Raf1-KRAS G12D-GTP disruption HTRF assay (Biological Example 3); format: binding
T1 construct: Avi-KRAS G12D (2-169)
Outline: (§1)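 An HTRF assay measured disruption of 50 nM Avi-KRAS (2-169)-GTP (WT, G12C, G12D or G12V) bound to RAF1 RBD-3xFLAG (51-131). Buffer was Tris pH 7.5 with 5 mM MgCl2 and 10% DMSO. Compounds (30–0.005 μM, 3-fold, 10 points) were incubated 1 h at room temperature, and activity is given as % of DMSO.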

[3] = target: T2, Avi-KRAS G12C (2-169) GTP/RAF1 RBD-3xFLAG (51-131) (Homo sapiens, UniProt P01116, G12C); test: Raf1-KRAS G12C-GTP disruption HTRF assay (Biological Example 3); format: binding
T2 construct: Avi-KRAS G12C (2-169)
Outline: as §1

[4] = target: T3, Avi-KRAS G12V (2-169) GTP/RAF1 RBD-3xFLAG (51-131) (Homo sapiens, UniProt P01116, G12V); test: Raf1-KRAS G12V-GTP disruption HTRF assay (Biological Example 3); format: binding
T3 construct: Avi-KRAS G12V (2-169)
Outline: as §1

[5] = target: T4, Avi-KRAS WT (2-169) GTP/RAF1 RBD-3xFLAG (51-131) (Homo sapiens, UniProt P01116); test: Raf1-KRAS WT-GTP disruption HTRF assay (Biological Example 3); format: binding
T4 construct: Avi-KRAS WT (2-169)
Outline: as §1

[6] = test system: SW620 cells (KRAS G12V); test: Cell-based pERK HTRF assay in SW620 cell (Biological Example 4); settings: Homo sapiens
Outline: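 SW620 seeded in RPMI/10% FBS, next day dosed 4 h (top 1 μM, half-log, 9 pts, 0.25% DMSO). Lysed, pERK by d2/Eu cryptate HTRF, 4–24 h RT, 615 nm read.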

[7] = SW-620, SW620 (KRAS G12V) cells

T1 sequence (P01116 2-169 isoform P01116-2 G12D): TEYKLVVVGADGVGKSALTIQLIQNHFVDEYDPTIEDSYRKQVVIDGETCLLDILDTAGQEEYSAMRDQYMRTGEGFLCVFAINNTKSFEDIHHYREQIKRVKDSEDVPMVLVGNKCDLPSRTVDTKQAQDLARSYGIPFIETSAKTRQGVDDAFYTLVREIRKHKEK
T2 sequence (P01116 2-169 isoform P01116-2 G12C): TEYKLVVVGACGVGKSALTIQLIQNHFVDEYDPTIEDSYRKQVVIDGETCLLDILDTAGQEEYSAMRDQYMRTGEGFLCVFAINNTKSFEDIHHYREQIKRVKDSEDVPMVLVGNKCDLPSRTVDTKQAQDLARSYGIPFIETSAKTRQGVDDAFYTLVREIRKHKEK
T4 sequence (P01116 2-169 isoform P01116-2): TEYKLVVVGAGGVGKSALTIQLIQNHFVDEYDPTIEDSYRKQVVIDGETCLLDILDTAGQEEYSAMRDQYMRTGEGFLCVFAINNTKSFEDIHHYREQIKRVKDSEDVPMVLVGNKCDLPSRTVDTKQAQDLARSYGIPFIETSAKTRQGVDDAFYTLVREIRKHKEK
T3 sequence (P01116 2-169 isoform P01116-2 G12V): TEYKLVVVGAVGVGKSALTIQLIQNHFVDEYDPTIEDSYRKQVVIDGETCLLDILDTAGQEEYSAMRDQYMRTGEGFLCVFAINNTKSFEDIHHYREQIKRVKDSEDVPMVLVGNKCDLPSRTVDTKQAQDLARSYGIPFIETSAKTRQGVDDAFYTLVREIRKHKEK

Row | SMILES | pIC50 ([1]; GP2d (KRAS G12D) cells) | pIC50 ([2]; KRAS G12D, GTP-loaded) | pIC50 ([3]; KRAS G12C, GTP-loaded) | pIC50 ([4]; KRAS G12V, GTP-loaded) | pIC50 ([5]; KRAS WT, GTP-loaded) | pIC50 [6, 7] | pIC50 ([1]; GP2d cells (KRAS G12D)) | pIC50 ([2]; KRAS G12D-GTP / RAF1 RBD HTRF) | pIC50 ([3]; KRAS G12C-GTP / RAF1 RBD HTRF) | pIC50 ([4]; KRAS G12V-GTP / RAF1 RBD HTRF) | pIC50 ([5]; KRAS WT-GTP / RAF1 RBD HTRF) | pIC50 ([6]; SW-620, SW620 cells (KRAS G12V))
1 | CCN(c1nc(OC[C@@]23CCCN2C[C@H](F)C3)nc2c(F)c(-c3ccc(F)c4sc(N)c(C#N)c34)c(C(F)(F)F)cc12)[C@H]1CCN(C(=O)OC2CC(F)(F)C2)C1 (atropisomer, axis not shown) [Compound 830] | > 7.00 | 6.00 to 7.00 | 6.00 to 7.00 | 6.00 to 7.00 | 6.00 to 7.00 | > 7.00 | – | – | – | – | – | –
2 | CCN(c1nc(OC[C@@]23CCCN2C[C@H](F)C3)nc2c(F)c(-c3ccc(F)c4sc(N)c(C#N)c34)c(C(F)(F)F)cc12)[C@H]1CCN(C(=O)C2C[C@H]2F)[C@@H]1C (stereo partly drawn) [Compound 874] | > 7.00 | 6.00 to 7.00 | 6.00 to 7.00 | 6.00 to 7.00 | 6.00 to 7.00 | > 7.00 | – | – | – | – | – | –
3 | CCN(c1nc(OC[C@@]23CCCN2C[C@H](F)C3)nc2c(F)c(-c3ccc(F)c4sc(N)c(C#N)c34)c(C(F)(F)F)cc12)[C@H]1C[C@H](C)N(C(=O)OC2CC(OC)C2)C1 (stereo partly drawn) [Compound 907] | > 7.00 | 6.00 to 7.00 | 6.00 to 7.00 | 6.00 to 7.00 | 6.00 to 7.00 | > 7.00 | – | – | – | – | – | –
4 | CN(Cc1cccc(=O)n1C)c1nc(OC[C@@]23CCCN2C[C@H](F)C3)nc2c(F)c(-c3ccc(F)c4sc(N)c(C#N)c34)c(C(F)(F)F)cc12 (atropisomer, axis not shown) [Compound 879] | > 7.00 | 5.00 to 6.00 | < 5.00 | < 5.00 | < 5.00 | > 7.00 | – | – | – | – | – | –
5 | CCN(c1nc(OC[C@@]23CCCN2C[C@H](F)C3)nc2c(F)c(-c3ccc(F)c4sc(N)c(C#N)c34)c(C(F)(F)F)cc12)[C@H]1C[C@H](COC)N(C(=O)[C@@H]2CC2(F)F)C1 (atropisomer, axis not shown) [Compound 854] | > 7.00 | 6.00 to 7.00 | 6.00 to 7.00 | 6.00 to 7.00 | 6.00 to 7.00 | > 7.00 | – | – | – | – | – | –
6 | CCN(c1nc(OC[C@@]23CCCN2C[C@H](F)C3)nc2c(F)c(-c3ccc(F)c4sc(N)c(C#N)c34)c(C(F)(F)F)cc12)[C@H]1CCN(C(=O)c2cncs2)C1 (atropisomer, axis not shown; (aS)) [Compound 906, 2-amino-4-((S)-4-(ethyl((S)-1-(thiazole-5-carbonyl)pyrrolidin-3-yl)amino)-8-fluoro-2-(((2R,7aS)-2-fluorotetrahydro-1H-pyrrolizin-7a(5H)-yl)methoxy)-6-(trifluoromethyl)quinazolin-7-yl)-7-fluorobenzo[b]thiophene-3-carbonitrile] | > 7.00 | 6.00 to 7.00 | 6.00 to 7.00 | 6.00 to 7.00 | 6.00 to 7.00 | > 7.00 | – | – | – | – | – | –
7 | CCN(c1nc(OC[C@@]23CCCN2C[C@H](F)C3)nc2c(F)c(-c3ccc(F)c4sc(N)c(C#N)c34)c(C(F)(F)F)cc12)[C@H]1CCN(C(=O)N2CC(F)(F)C2)C1 (atropisomer, axis not shown) [Compound 831] | > 7.00 | 6.00 to 7.00 | 6.00 to 7.00 | 6.00 to 7.00 | 6.00 to 7.00 | > 7.00 | – | – | – | – | – | –
8 | CCN(c1nc(OC[C@@]23CCCN2C[C@H](F)C3)nc2c(F)c(-c3ccc(F)c4sc(N)c(C#N)c34)c(C(F)(F)F)cc12)[C@H]1CCN(C(=O)[C@H]2CCO2)[C@H]1C (atropisomer, axis not shown) [Compound 868] | > 7.00 | 6.00 to 7.00 | 5.00 to 6.00 | 5.00 to 6.00 | 5.00 to 6.00 | 6.00 to 7.00 | – | – | – | – | – | –
9 | CCN(c1nc(OC[C@@]23CCCN2C[C@H](F)C3)nc2c(F)c(-c3ccc(F)c4sc(N)c(C#N)c34)c(C(F)(F)F)cc12)[C@H]1C[C@@H](C)N(C(=O)C2CC2(F)F)C1 (stereo partly drawn) [Compound 877] | > 7.00 | 6.00 to 7.00 | 5.00 to 6.00 | 5.00 to 6.00 | 5.00 to 6.00 | > 7.00 | – | – | – | – | – | –
10 | CCN(c1nc(OC[C@@]23CCCN2C[C@H](F)C3)nc2c(F)c(-c3ccc(F)c4sc(N)c(C#N)c34)c(C(F)(F)F)cc12)C1CCN(C(=O)C2CC2)C1 (stereo partly drawn) [Compound 903] | > 7.00 | ≥ 7.00 | ≥ 7.00 | ≥ 7.00 | 6.00 to 7.00 | > 7.00 | – | – | – | – | – | –
11 | CCN(c1nc(OC[C@@]23CCCN2C[C@H](F)C3)nc2c(F)c(-c3ccc(F)c4sc(N)c(C#N)c34)c(C(F)(F)F)cc12)[C@H]1CCN(C(=O)OCC(F)(F)F)C1 (atropisomer, axis not shown) [Compound 849] | > 7.00 | 6.00 to 7.00 | 6.00 to 7.00 | 6.00 to 7.00 | 6.00 to 7.00 | > 7.00 | – | – | – | – | – | –
12 | CCN(c1nc(OC[C@@]23CCCN2C[C@H](F)C3)nc2c(F)c(-c3ccc(F)c4sc(N)c(C#N)c34)c(C(F)(F)F)cc12)[C@H]1C[C@H](C)N(C(=O)C2C[C@@H]2F)C1 (stereo partly drawn) [Compound 886] | > 7.00 | 6.00 to 7.00 | ≥ 7.00 | ≥ 7.00 | 6.00 to 7.00 | > 7.00 | – | – | – | – | – | –

Other lines, results leading:

Row | pIC50 ([1]; GP2d (KRAS G12D) cells) | pIC50 ([2]; KRAS G12D, GTP-loaded) | pIC50 ([3]; KRAS G12C, GTP-loaded) | pIC50 ([4]; KRAS G12V, GTP-loaded) | pIC50 ([5]; KRAS WT, GTP-loaded) | pIC50 [6, 7] | pIC50 ([1]; GP2d cells (KRAS G12D)) | pIC50 ([2]; KRAS G12D-GTP / RAF1 RBD HTRF) | pIC50 ([3]; KRAS G12C-GTP / RAF1 RBD HTRF) | pIC50 ([4]; KRAS G12V-GTP / RAF1 RBD HTRF) | pIC50 ([5]; KRAS WT-GTP / RAF1 RBD HTRF) | pIC50 ([6]; SW-620, SW620 cells (KRAS G12V)) | SMILES
13 | > 7.00 | ≥ 7.00 | 6.00 to 7.00 | ≥ 7.00 | 6.00 to 7.00 | > 7.00 | – | – | – | – | – | – | CCN(c1nc(OC[C@@]23CCCN2C[C@H](F)C3)nc2c(F)c(-c3ccc(F)c4sc(N)c(C#N)c34)c(C(F)(F)F)cc12)[C@H]1C[C@H](C)N(C(=O)c2coc(C)n2)C1 (atropisomer, axis not shown) [Compound 915]
14 | > 7.00 | ≥ 7.00 | ≥ 7.00 | ≥ 7.00 | 6.00 to 7.00 | > 7.00 | – | – | – | – | – | – | CCN(c1nc(OC[C@@]23CCCN2C[C@H](F)C3)nc2c(F)c(-c3ccc(F)c4sc(N)c(C#N)c34)c(C(F)(F)F)cc12)[C@H]1C[C@H](C)N(C(=O)[C@@H]2CCO2)C1 (atropisomer, axis not shown) [Compound 922]
15 | > 7.00 | 6.00 to 7.00 | 6.00 to 7.00 | 6.00 to 7.00 | 6.00 to 7.00 | > 7.00 | – | – | – | – | – | – | CCN(c1nc(OC[C@@]23CCCN2C[C@H](F)C3)nc2c(F)c(-c3ccc(F)c4sc(N)c(C#N)c34)c(C(F)(F)F)cc12)[C@H]1C[C@H]2CN(CC(F)F)C(=O)N2C1 (atropisomer, axis not shown) [Compound 940]
16 | > 7.00 | 5.00 to 6.00 | < 5.00 | < 5.00 | < 5.00 | 6.00 to 7.00 | – | – | – | – | – | – | CCN(c1nc(OC[C@@]23CCCN2C[C@H](F)C3)nc2c(F)c(-c3ccc(F)c4sc(N)c(C#N)c34)c(C(F)(F)F)cc12)[C@H]1C=C[C@@H](C(=O)N(C)C)C1 (atropisomer, axis not shown) [Compound 938]
17 | > 7.00 | 5.00 to 6.00 | < 5.00 | < 5.00 | < 5.00 | > 7.00 | – | – | – | – | – | – | CCN(c1nc(OC[C@@]23CCCN2C[C@H](F)C3)nc2c(F)c(-c3ccc(F)c4sc(N)c(C#N)c34)c(C(F)(F)F)cc12)[C@@H]1CCN(c2ccccn2)C1 [Compound 945]
18 | – | – | – | – | – | – | > 7.00 | 6.00 to 7.00 | 6.00 to 7.00 | 6.00 to 7.00 | 6.00 to 7.00 | > 7.00 | CN(c1nc(OC[C@@]23CCCN2C[C@H](F)C3)nc2c(F)c(-c3ccc(F)c4sc(N)c(C#N)c34)c(C(F)(F)F)cc12)[C@@H]1CCCc2ccncc21 (atropisomer, axis not shown) [Compound 972]
19 | > 7.00 | 6.00 to 7.00 | 6.00 to 7.00 | 6.00 to 7.00 | 6.00 to 7.00 | > 7.00 | – | – | – | – | – | – | CN(c1nc(OC[C@@]23CCCN2C[C@H](F)C3)nc2c(F)c(-c3ccc(F)c4sc(N)c(C#N)c34)c(C(F)(F)F)cc12)[C@H]1CC(=O)N2CCC[C@H]12 (atropisomer, axis not shown) [Compound 934]
20 | > 7.00 | 6.00 to 7.00 | 6.00 to 7.00 | 6.00 to 7.00 | 6.00 to 7.00 | > 7.00 | – | – | – | – | – | – | CN(c1nc(OC[C@@]23CCCN2C[C@H](F)C3)nc2c(F)c(-c3ccc(F)c4sc(N)c(C#N)c34)c(C(F)(F)F)cc12)[C@H]1CC(=O)N2CCC[C@@H]12 (atropisomer, axis not shown) [Compound 916]
